Laboratory results published in US20230322761A1, “DEGRADATION OF BRUTON'S TYROSINE KINASE (BTK) BY CONJUGATION OF BTK INHIBITORS WITH E3 LIGASE LIGAND AND METHODS OF USE” (BEIGENE, LTD., priority 2020, published 2023).

target: T1, BTK (Homo sapiens, UniProt Q06187); assay: BTK degradation in TMD-8 cells, HTRF assay after 6 h treatment; assay type: cell-based; conditions: IC50 (DC50) of BTK degradation
T1 construct: endogenous in cells; host or cells: TMD-8 cells
How it was run: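 TMD-8 cells treated for 6 h with 8 compound doses in 6-fold dilution steps from a 1 mM 500× DMSO stock (0.2% DMSO), then lysed 30 min at room temperature. BTK in lysate detected by HTRF (665/620 nm) after overnight antibody incubation; DC50 from four-parameter curve fit.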

T1 sequence (Q06187 whole entry): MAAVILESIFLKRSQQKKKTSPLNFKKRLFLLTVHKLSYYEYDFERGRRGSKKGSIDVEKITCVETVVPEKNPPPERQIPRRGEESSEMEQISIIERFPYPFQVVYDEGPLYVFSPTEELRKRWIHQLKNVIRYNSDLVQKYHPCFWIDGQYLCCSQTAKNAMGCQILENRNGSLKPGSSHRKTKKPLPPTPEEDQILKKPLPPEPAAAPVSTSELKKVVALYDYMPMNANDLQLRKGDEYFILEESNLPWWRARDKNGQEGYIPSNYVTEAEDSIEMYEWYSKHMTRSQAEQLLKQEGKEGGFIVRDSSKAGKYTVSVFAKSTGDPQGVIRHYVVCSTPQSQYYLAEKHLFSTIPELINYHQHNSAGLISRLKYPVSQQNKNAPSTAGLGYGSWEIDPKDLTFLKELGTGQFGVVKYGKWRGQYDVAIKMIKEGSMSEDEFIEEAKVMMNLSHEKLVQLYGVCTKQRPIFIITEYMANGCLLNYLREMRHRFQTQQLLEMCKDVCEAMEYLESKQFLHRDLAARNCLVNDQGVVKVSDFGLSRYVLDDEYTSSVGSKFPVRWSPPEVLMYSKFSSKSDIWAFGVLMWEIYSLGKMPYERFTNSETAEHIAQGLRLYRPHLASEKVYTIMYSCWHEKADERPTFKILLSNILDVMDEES

| Compound | DC50 |
| --- | --- |
| Cc1cc(-c2n[nH]c3ncc(-c4ccc(N5CCN(CCc6ccc(N7CCC(=O)NC7=O)cc6)CC5)cc4)cc23)ccc1[C@@H](C)NC(=O)c1noc(C(C)(C)C)n1 [Example 129, (R)-5-(tert-butyl)-N-(1-(4-(5-(4-(4-(4-(2,4-dioxotetrahydropyrimidin-1(2H)-yl)phenethyl)piperazin-1-yl)phenyl)-1H-pyrazolo[3,4-b]pyridin-3-yl)-2-methylphenyl)ethyl)-1,2,4-oxadiazole-3-carboxamide] | 3.73 nM |
| COc1cc(OCCCN2CCN(c3ccc(-c4cnc5[nH]nc(-c6ccc([C@@H](C)NC(=O)c7noc(C(C)(C)C)n7)c(C)c6)c5c4)cc3)CC2)ccc1NC1CCC(=O)NC1=O (stereo partly drawn) [Example 130, 5-(tert-butyl)-N-((1R)-1-(4-(5-(4-(4-(3-(4-((2,6-dioxopiperidin-3-yl)amino)-3-methoxyphenoxy)propyl)piperazin-1-yl)phenyl)-1H-pyrazolo[3,4-b]pyridin-3-yl)-2-methylphenyl)ethyl)-1,2,4-oxadiazole-3-carboxamide] | 5.28 nM |
| Cc1cc(-c2n[nH]c3ncc(-c4ccc(N5CCN(CCc6ccc(NC7CCC(=O)NC7=O)cc6)CC5)cc4)cc23)ccc1[C@@H](C)NC(=O)c1noc(C(C)(C)C)n1 (stereo partly drawn) [Example 131, 5-(tert-butyl)-N-((1R)-1-(4-(5-(4-(4-(4-((2,6-dioxopiperidin-3-yl)amino)phenethyl)piperazin-1-yl)phenyl)-1H-pyrazolo[3,4-b]pyridin-3-yl)-2-methylphenyl)ethyl)-1,2,4-oxadiazole-3-carboxamide] | 5.9 nM |
| Cc1cc(-c2n[nH]c3ncc(-c4ccc(N5CC6CC5CN6CCc5ccc(N6CCC(=O)NC6=O)cc5)cn4)cc23)ccc1[C@@H](C)NC(=O)c1noc(C(C)(C)C)n1 (stereo partly drawn) [Example 132, 5-(tert-butyl)-N-((1R)-1-(4-(5-(5-(5-(4-(2,4-dioxotetrahydropyrimidin-1(2H)-yl)phenethyl)-2,5-diazabicyclo[2.2.1]heptan-2-yl)pyridin-2-yl)-1H-pyrazolo[3,4-b]pyridin-3-yl)-2-methylphenyl)ethyl)-1,2,4-oxadiazole-3-carboxamide] | > 2000 nM |
| Cc1cc(-c2n[nH]c3ncc(-c4ccc(N5CCN(CC6CCN(c7ccc(N8CCC(=O)NC8=O)cc7F)CC6)CC5)cc4)cc23)ccc1[C@@H](C)NC(=O)c1noc(C(C)(C)C)n1 [Example 134, (R)-5-(tert-butyl)-N-(1-(4-(5-(4-(4-((1-(4-(2,4-dioxotetrahydropyrimidin-1(2H)-yl)-2-fluorophenyl)piperidin-4-yl)methyl)piperazin-1-yl)phenyl)-1H-pyrazolo[3,4-b]pyridin-3-yl)-2-methylphenyl)ethyl)-1,2,4-oxadiazole-3-carboxamide] | 9.96 nM |
| Cc1cc(-c2n[nH]c3ncc(-c4ccc(N5CCN(CC6CCN(c7ccc(N8CCC(=O)NC8=O)cc7C)CC6)CC5)cc4)cc23)ccc1[C@@H](C)NC(=O)c1noc(C(C)(C)C)n1 [Example 135, (R)-5-(tert-butyl)-N-(1-(4-(5-(4-(4-((1-(4-(2,4-dioxotetrahydropyrimidin-1(2H)-yl)-2-methylphenyl)piperidin-4-yl)methyl)piperazin-1-yl)phenyl)-1H-pyrazolo[3,4-b]pyridin-3-yl)-2-methylphenyl)ethyl)-1,2,4-oxadiazole-3-carboxamide] | 12.7 nM |
| Cc1cc(-c2n[nH]c3ncc(-c4ccc(N5CCN(CCC6CCN(c7ccc(C8CCC(=O)NC8=O)c(C)n7)CC6)CC5)cc4)cc23)ccc1[C@@H](C)NC(=O)c1noc(C(C)(C)C)n1 (stereo partly drawn) [Example 136, 5-(tert-butyl)-N-((1R)-1-(4-(5-(4-(4-(2-(1-(5-(2,6-dioxopiperidin-3-yl)-6-methylpyridin-2-yl)piperidin-4-yl)ethyl)piperazin-1-yl)phenyl)-1H-pyrazolo[3,4-b]pyridin-3-yl)-2-methylphenyl)ethyl)-1,2,4-oxadiazole-3-carboxamide] | 14.9 nM |
| COc1cc(CCN2CCN(c3ccc(-c4cnc5[nH]nc(-c6ccc([C@@H](C)NC(=O)c7noc(C(C)(C)C)n7)c(C)c6)c5c4)cc3)CC2)ccc1C1CCC(=O)NC1=O (stereo partly drawn) [Example 137, 5-(tert-butyl)-N-((1R)-1-(4-(5-(4-(4-(4-(2,6-dioxopiperidin-3-yl)-3-methoxyphenethyl)piperazin-1-yl)phenyl)-1H-pyrazolo[3,4-b]pyridin-3-yl)-2-methylphenyl)ethyl)-1,2,4-oxadiazole-3-carboxamide] | 5.23 nM |
| Cc1cc(-c2n[nH]c3ncc(-c4ccc(N5CCN(CC6CCN(c7cccc(N8CCC(=O)NC8=O)c7)CC6)CC5)cc4)cc23)ccc1[C@@H](C)NC(=O)c1noc(C(C)(C)C)n1 [Example 138, (R)-5-(tert-butyl)-N-(1-(4-(5-(4-(4-((1-(3-(2,4-dioxotetrahydropyrimidin-1(2H)-yl)phenyl)piperidin-4-yl)methyl)piperazin-1-yl)phenyl)-1H-pyrazolo[3,4-b]pyridin-3-yl)-2-methylphenyl)ethyl)-1,2,4-oxadiazole-3-carboxamide] | 8.6 nM |
| Cc1cc(-c2n[nH]c3ncc(-c4ccc(N5CCN(CCCOc6ccc(NC7CCC(=O)NC7=O)c(F)c6)CC5)cc4)cc23)ccc1[C@@H](C)NC(=O)c1noc(C(C)(C)C)n1 (stereo partly drawn) [Example 142, 5-(tert-butyl)-N-((1R)-1-(4-(5-(4-(4-(3-(4-((2,6-dioxopiperidin-3-yl)amino)-3-fluorophenoxy)propyl)piperazin-1-yl)phenyl)-1H-pyrazolo[3,4-b]pyridin-3-yl)-2-methylphenyl)ethyl)-1,2,4-oxadiazole-3-carboxamide] | 6.15 nM |
| Cc1cc(-c2n[nH]c3ncc(-c4ccc(N5CCN(CCn6cc(N7CCC(=O)NC7=O)cn6)CC5)cc4)cc23)ccc1[C@@H](C)NC(=O)c1noc(C(C)(C)C)n1 [Example 143, (R)-5-(tert-butyl)-N-(1-(4-(5-(4-(4-(2-(4-(2,4-dioxotetrahydropyrimidin-1(2H)-yl)-1H-pyrazol-1-yl)ethyl)piperazin-1-yl)phenyl)-1H-pyrazolo[3,4-b]pyridin-3-yl)-2-methylphenyl)ethyl)-1,2,4-oxadiazole-3-carboxamide] | 18.8 nM |

Now those with a lower DC50, led by results:

| DC50 | Compound |
| --- | --- |
| 1.96 nM | Cc1cc(-c2n[nH]c3ncc(-c4ccc(N5CC6CC5CN6CCc5ccc(C6CCC(=O)NC6=O)cc5)cn4)cc23)ccc1[C@@H](C)NC(=O)c1noc(C(C)(C)C)n1 (stereo partly drawn) [Example 133, 5-(tert-butyl)-N-((1R)-1-(4-(5-(5-(5-(4-(2,6-dioxopiperidin-3-yl)phenethyl)-2,5-diazabicyclo[2.2.1]heptan-2-yl)pyridin-2-yl)-1H-pyrazolo[3,4-b]pyridin-3-yl)-2-methylphenyl)ethyl)-1,2,4-oxadiazole-3-carboxamide] |
| 1.03 nM | Cc1cc(-c2n[nH]c3ncc(-c4ccc(N5CCN(CCc6ccc([C@@H]7CCC(=O)NC7=O)cn6)CC5)cc4)cc23)ccc1[C@@H](C)NC(=O)c1noc(C(C)(C)C)n1 [Example 139, 5-(tert-butyl)-N—((R)-1-(4-(5-(4-(4-(2-(5-((S)-2,6-dioxopiperidin-3-yl)pyridin-2-yl)ethyl)piperazin-1-yl)phenyl)-1H-pyrazolo[3,4-b]pyridin-3-yl)-2-methylphenyl)ethyl)-1,2,4-oxadiazole-3-carboxamide] |
| 1.11 nM | Cc1cc(-c2n[nH]c3ncc(-c4ccc(N5CCN(CCc6ccc([C@H]7CCC(=O)NC7=O)cn6)CC5)cc4)cc23)ccc1[C@@H](C)NC(=O)c1noc(C(C)(C)C)n1 [Example 140, 5-(tert-butyl)-N—((R)-1-(4-(5-(4-(4-(2-(5-((R)-2,6-dioxopiperidin-3-yl)pyridin-2-yl)ethyl)piperazin-1-yl)phenyl)-1H-pyrazolo[3,4-b]pyridin-3-yl)-2-methylphenyl)ethyl)-1,2,4-oxadiazole-3-carboxamide] |
| 3.27 nM | Cc1cc(CCN2CCN(c3ccc(-c4cnc5[nH]nc(-c6ccc([C@@H](C)NC(=O)c7noc(C(C)(C)C)n7)c(C)c6)c5c4)cc3)CC2)ncc1C1CCC(=O)NC1=O (stereo partly drawn) [Example 141, 5-(tert-butyl)-N-((1R)-1-(4-(5-(4-(4-(2-(5-(2,6-dioxopiperidin-3-yl)-4-methylpyridin-2-yl)ethyl)piperazin-1-yl)phenyl)-1H-pyrazolo[3,4-b]pyridin-3-yl)-2-methylphenyl)ethyl)-1,2,4-oxadiazole-3-carboxamide] |
| 1.93 nM | Cc1cc(-c2n[nH]c3ncc(-c4ccc(N5CCC(CN6CCN(c7ccc(N8CCC(=O)NC8=O)cc7)CC6)CC5)cc4)cc23)ccc1[C@@H](C)NC(=O)c1noc(C(C)(C)C)n1 [Example 144, (R)-5-(tert-butyl)-N-(1-(4-(5-(4-(4-((4-(4-(2,4-dioxotetrahydropyrimidin-1(2H)-yl)phenyl)piperazin-1-yl)methyl)piperidin-1-yl)phenyl)-1H-pyrazolo[3,4-b]pyridin-3-yl)-2-methylphenyl)ethyl)-1,2,4-oxadiazole-3-carboxamide] |
| 1.22 nM | Cc1cc(CCN2CCC(c3ccc(-c4cnc5[nH]nc(-c6ccc([C@@H](C)NC(=O)c7noc(C(C)(C)C)n7)c(C)c6)c5c4)nc3)CC2)ncc1C1CCC(=O)NC1=O (stereo partly drawn) [Example 145, 5-(tert-butyl)-N-((1R)-1-(4-(5-(5-(1-(2-(5-(2,6-dioxopiperidin-3-yl)-4-methylpyridin-2-yl)ethyl)piperidin-4-yl)pyridin-2-yl)-1H-pyrazolo[3,4-b]pyridin-3-yl)-2-methylphenyl)ethyl)-1,2,4-oxadiazole-3-carboxamide] |
| 1.74 nM | Cc1cc(-c2n[nH]c3ncc(-c4ccc(N5CCN(CCc6ccc(C7CCC(=O)NC7=O)c(F)c6)CC5)cn4)cc23)ccc1[C@@H](C)NC(=O)c1noc(C(C)(C)C)n1 (stereo partly drawn) [Example 146, 5-(tert-butyl)-N-((1R)-1-(4-(5-(5-(4-(4-(2,6-dioxopiperidin-3-yl)-3-fluorophenethyl)piperazin-1-yl)pyridin-2-yl)-1H-pyrazolo[3,4-b]pyridin-3-yl)-2-methylphenyl)ethyl)-1,2,4-oxadiazole-3-carboxamide] |
